Experimental data taken from patent US7056928B2, “Pyrimidine derivatives as selective inhibitors of COX-2” (Glaxo Group Limited, priority 2001, dated 2006).

How the values were obtained:
microsomal h-COX2 = target: T1, microsomal h-COX2 (Homo sapiens, UniProt P35354); assay: Microsomal assay, inhibition of h-COX2; type: biochemical; conditions: microsomal preparation from baculovirus infected SF9 cells; PGE2 by EIA; read-out: COX-2: IC50
T1 construct: made in house; host or cells: baculovirus infected SF9 cells (microsomal preparation)
T1 sequence (P35354 18-604): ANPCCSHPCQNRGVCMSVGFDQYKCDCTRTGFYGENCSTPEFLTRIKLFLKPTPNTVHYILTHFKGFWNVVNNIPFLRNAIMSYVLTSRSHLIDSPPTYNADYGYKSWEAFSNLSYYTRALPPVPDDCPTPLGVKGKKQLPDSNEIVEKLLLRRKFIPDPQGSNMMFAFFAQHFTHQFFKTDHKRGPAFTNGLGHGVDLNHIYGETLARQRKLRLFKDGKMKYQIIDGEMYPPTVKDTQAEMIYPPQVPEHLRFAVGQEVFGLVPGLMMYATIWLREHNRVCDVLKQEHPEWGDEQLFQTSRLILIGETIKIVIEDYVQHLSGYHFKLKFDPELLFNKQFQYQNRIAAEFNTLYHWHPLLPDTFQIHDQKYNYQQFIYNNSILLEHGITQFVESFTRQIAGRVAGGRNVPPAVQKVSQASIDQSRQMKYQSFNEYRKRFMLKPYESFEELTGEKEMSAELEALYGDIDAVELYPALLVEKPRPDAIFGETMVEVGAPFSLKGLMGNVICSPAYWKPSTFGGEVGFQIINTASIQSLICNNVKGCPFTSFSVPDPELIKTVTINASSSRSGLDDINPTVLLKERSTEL
Method: (§1) Inhibitory activity against microsomal h-COX2 was assessed against a microsomal preparation from baculovirus infected SF9 cells. An aliquot of microsomal preparation was thawed slowly on ice and a 1/40,000 dilution prepared from it into the assay buffer (sterile water, degassed with argon containing 100 mM HEPES (pH 7.4), 10 mM EDTA (pH7.4), 1 mM phenol, 1 mM reduced glutathione, 20 mg/ml gelatin and 0.001 mM Hematin). Once diluted the enzyme solution was then sonicated for 5 seconds (Branson sonicator, setting 4, 1 cm tip) to ensure a homogeneous suspension. 155 μl enzyme solution was then added to each well of a 96-well microtitre plate containing either […] test compound (40×required test concentration) or 5 μl DMSO for controls. Plates were then mixed and incubated at room temperature for 1 hour. Following the incubation period, 40 μl of 0.5 μM arachidonic acid was added to each well to give a final concentration of 0.1 μM. Plates were then mixed and incubated for exactly 10 minutes (room temperature) prior to addition of 25 μl 1M HCl (hydrochloric acid) to each well to stop the reaction. 25 μl of 1M NaOH (sodium hydroxide) was then added to each well to neutralise the solution prior to determination of PGE2 levels by enzyme immunoassay (EIA).
(§2) The following IC50 value for inhibition of COX-2 and COX-1 were obtained from the microsomal assay for compounds of the invention: […]

COX-1 = COX-1 (Homo sapiens, UniProt P23219); assay: Microsomal assay, inhibition of COX-1; type: biochemical
Chain of COX-1 (P23219 24-599): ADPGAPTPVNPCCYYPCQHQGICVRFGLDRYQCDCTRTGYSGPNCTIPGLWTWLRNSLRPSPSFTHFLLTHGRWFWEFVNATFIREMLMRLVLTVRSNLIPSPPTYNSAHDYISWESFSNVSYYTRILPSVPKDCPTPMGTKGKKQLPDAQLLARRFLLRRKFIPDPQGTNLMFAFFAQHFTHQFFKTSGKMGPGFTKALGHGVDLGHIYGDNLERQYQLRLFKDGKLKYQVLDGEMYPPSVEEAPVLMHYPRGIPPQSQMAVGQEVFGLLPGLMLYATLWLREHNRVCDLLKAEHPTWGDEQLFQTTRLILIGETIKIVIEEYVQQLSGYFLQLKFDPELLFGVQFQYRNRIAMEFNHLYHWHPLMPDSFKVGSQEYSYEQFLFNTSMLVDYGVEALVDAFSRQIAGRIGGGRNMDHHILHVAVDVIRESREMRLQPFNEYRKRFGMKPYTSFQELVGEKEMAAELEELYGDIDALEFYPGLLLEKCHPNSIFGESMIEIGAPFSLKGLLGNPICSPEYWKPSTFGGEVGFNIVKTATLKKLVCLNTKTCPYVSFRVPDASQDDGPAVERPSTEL
Method: as §1, §2

- IC50 (microsomal h-COX2): 0.022 µM
- IC50 (COX-1): 17.7 µM
SMILES: CS(=O)(=O)c1ccc(-c2cc(CF)nc(NCc3ccccc3)n2)cc1 [Example 1, 4-[4-(Methylsulfonyl)phenyl]-N-(Phenylmethyl)-6(fluoromethyl)pyrimidin-2-amine]
